Source: publication PMC12811501, “A plant-derived antimicrobial peptide with multiple mechanisms of action exhibiting antibacterial and antibiofilm activities comparable to or superior to polymyxin B” (Current Research in Microbial Sciences, 2025)
In brackets after ≈: the same amount, converted by molar mass. Residues, ends and D or L forms follow the SMILES beside them.

Assays:
[1] = target: Proteinase K (Parengyodontium album, UniProt P06873); experiment: Proteinase K treatment of peptide-DNA samples (recovery of SYBR Gold fluorescence); settings: Proteinase K 1 mg/ml added at 27 min to peptide-DNA-SYBR Gold samples, 10 µM peptide
Protocol: In addition, DNA-binding kinetics were monitored in real time using a Hidex Sense plate reader at room temperature in three independent experiments. Reaction mixtures contained 100 ng of HindIII-digested lambda phage DNA in 1 × SYBR Gold (Thermo Scientific), either without peptide or with 10 µM of NCR169C17–38 (2.74041 µg), NCR169 (4.56545 µg), NCR169_16–27 (1.56597 µg), or NCR169_17–27 (1.40279 µg). Peptides were added either at the start (0 min) or at 14 min. Fluorescence from DNA-bound SYBR Gold was measured every 3 min (excitation 490 nm, emission 535 nm). At 27 min, proteinase K (1 mg/ml; 100 µg final) was added to peptide-treated samples to assess the effect on peptide–DNA binding. Experiments were done in three biological replicates.
The DNA-binding kinetics were quantified using SYBR Gold fluorescence (Fig. 3.D). […] To test if peptide removal would recover the DNA–SYBR Gold fluorescence to control values, Proteinase K was added at 27 min to all reactions. […] In contrast, fluorescence values in the NCR169 samples remained unchanged, while those of NCR169C17–38 or NCR169_17–27 increased slightly and gradually to the same limited extent.

[2] = system: E. coli; experiment: Live/Dead staining (SYTO 9 / PI) of membrane integrity, confocal microscopy; format: cell-based, Escherichia coli; settings: 10 min
Protocol: Microbial cell membrane integrity or damage was assayed with Live/Dead staining. E. coli were grown as for the antimicrobial activity assay and washed with PPB. […] Untreated cells served as negative control. Cells were subsequently stained with 5 μM SYTO 9 and 5 μM propidium iodide (PI). After a 10-minute incubation in the dark, 5 µl of each cell suspension was placed on a microscope slide, covered with thin 2 % (w/v) agar slices, and examined using an Olympus Fluoview FV1000 confocal laser microscope at × 60 magnification. For SYTO 9, excitation was at 488 nm and emission was collected between 500 and 530 nm; for PI, excitation was at 543 nm with emission detected between 555 and 655 nm. Sequential scanning was used to avoid crosstalk of the fluorescent dyes.
Next, we investigated whether the application of NCR169C17–38 peptide affects membrane permeability of E. coli, and if so, to what extent and how rapidly these changes occur.

[3] = system: E. coli; experiment: Real-time PI uptake; format: cell-based, Escherichia coli
Protocol: To monitor PI uptake in real time, 10 µl of E. coli suspension (OD₆₀₀ = 0.1, prepared as described above) was mixed with 90 µl of PPB containing a two-fold serial dilution of NCR169C17–38 (12.5 µM to 0.8 µM) or polymyxin B (0.8 µM), along with 200 ng/ml PI. Fluorescence was recorded using a Hidex Sense Microplate Reader (software version 5064) with excitation and emission wavelengths set at 535 nm and 617 nm, respectively. Experiments were repeated three times.
To get a more precise assessment of how rapidly NCR169C17–38 induces membrane damage, we monitored PI uptake in real time. E. coli was treated in a microtiter plate with two-fold dilutions of NCR169C17–38 (12.5 - 0.8 µM) and PI fluorescence was measured using a plate reader (Fig. 2.C). For comparison, polymyxin B, a well-known membrane-permeabilizing/damaging antibiotic, was included as a control. A rapid rise in fluorescence within 1–2 min was observed upon exposure to NCR169C17–38 at MBC or higher concentrations, indicating swift membrane permeabilization.

[4] = system: Escherichia coli (ATCC 8739); format: cell-based; settings: ATCC 8739
Description: The Gram-positive strains Enterococcus faecalis (ATCC 29212), Staphylococcus aureus (HNCMO112011), and Listeria monocytogenes (ATCC 19111), and the Gram-negative strains Pseudomonas aeruginosa (ATCC 27853), Escherichia coli (ATCC 8739), Salmonella enterica (ATCC 13076), Klebsiella pneumoniae (NCTC 13440), and Acinetobacter baumannii (ATCC 17978) were obtained from ATCC (United States) and NCTC (National Collection of Type Cultures – England).
Minimal bactericidal concentrations (MBC) of peptides and reference antibiotics were determined in 20 mM potassium phosphate buffer (PPB, pH 7.4) and Mueller–Hinton broth (MHB) as described by ([Jenei et al., 2020]). Briefly, bacterial cultures were grown to mid-log phase, washed, adjusted to OD₆₀₀ = 0.1 (∼10⁷ CFU/mL), added 10 μl of it into 100 μl mixture and incubated in 96-well plates with 2-fold serial dilutions of peptides or antibiotics. After incubation at 37 °C with shaking, bacterial viability was assessed by plating 5 μL aliquots on LB agar. MBC was defined as the lowest concentration yielding no colony growth. […]
Three biological replicates were treated at OD600 = 0.2 with a final concentration of 1.6 µM NCR169C17–38 peptide for 20 min, while the control samples were treated with the same amount of water for 20 min. […] Quality and quantity was detected using 2200 TapeStation (Agilent) and Qubit RNA BR Assay […]

[5] = system: Candida species; settings: ref Szerencsés et al., 2021; cited from earlier work
Description: (§1) NCR169 is another NCR peptide essential for differentiation of nitrogen fixing bacteroids in Medicago species ([Horváth et al., 2015]). This 38-amino-acid peptide contains four cysteines that are critical for its symbiotic function in planta.

[6] = system: Cryptococcus neoformans; settings: ref Szerencsés et al., 2025; cited from earlier work
Description: as §1

Proteinase K, sequence (P06873 106-384): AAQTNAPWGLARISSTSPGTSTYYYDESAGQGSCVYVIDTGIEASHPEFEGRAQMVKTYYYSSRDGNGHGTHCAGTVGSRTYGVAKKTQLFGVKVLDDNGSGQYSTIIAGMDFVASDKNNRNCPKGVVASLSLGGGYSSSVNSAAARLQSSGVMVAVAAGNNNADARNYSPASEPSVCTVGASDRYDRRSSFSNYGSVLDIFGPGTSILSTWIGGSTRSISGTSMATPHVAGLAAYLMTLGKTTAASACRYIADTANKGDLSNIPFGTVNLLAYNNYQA

CC[C@H](C)[C@H](NC(=O)[C@H](CCCCN)NC(=O)[C@H](Cc1ccccc1)NC(=O)[C@H](CC(C)C)NC(=O)[C@@H]1CCCN1C(=O)[C@H](CCCCN)NC(=O)[C@H](CCCCN)NC(=O)[C@H](CO)NC(=O)[C@@H](N)CCCCN)C(=O)N[C@@H](Cc1c[nH]c2ccccc12)C(=O)N[C@@H](CCCCN)C(=O)N[C@@H](CS)C(=O)N[C@H](C(=O)N[C@@H](CCC(=O)O)C(=O)N[C@@H](CC(N)=O)C(=O)N[C@H](C(=O)N[C@@H](CS)C(=O)N[C@H](C(=O)N[C@@H](CC(C)C)C(=O)N[C@@H](Cc1c[nH]c2ccccc12)C(=O)N[C@@H](Cc1ccc(O)cc1)C(=O)N[C@@H](CCCCN)C(N)=O)C(C)C)C(C)C)C(C)C [NCR169C17–38] (H-KSKKPLFKIWKCVENVCVLWYK-NH2; N-terminus assumed)
sensitivity to Proteinase K treatment [1]: only partial sensitivity
membrane integrity, SYTO 9 / PI staining ([2]; 0.8 µM peptide): predominantly red-stained cells
membrane integrity, SYTO 9 / PI staining ([2]; 1.6 µM peptide): all cells appeared red
time to rapid rise in PI fluorescence ([3]; E. coli in PPB, peptide at MBC or higher concentrations (12.5-0.8 µM tested), 200 ng/ml PI): 1 to 2 min
PI uptake kinetics compared at respective MBC values ([3]; E. coli, polymyxin B 0.8 µM as control): more rapidly and effectively than polymyxin B
MBC [4]: 6.2 µM (≈ 17 µg/mL)
antifungal activity [5]: potent antifungal activity
antifungal activity [6]: potent antifungal activity
